Assays:
PAMPA test, Example 34 = conditions: PAMPA
[1] = Serum pharmacokinetics of immediate release capsules in healthy volunteers; type: in vivo, human; conditions: 5 mg dose cohort, 6 subjects
Procedure: The hydrochloride salt of MCD-386 (“MCD-386 HCl”) was formulated with the following excipients and loaded into #3 hard gelatin capsules (5 mg dose) or #2 hard gelatin capsules (0.2 mg dose).
A single 5 mg capsule or 5×0.2 mg capsules (1 mg total dose) were administered orally to healthy male volunteer human subjects with 125 ml of water. Six such subjects receiving the 5 mg dose, and a different 6 subjects received the 1 mg dose.
Venous blood samples were drawn at various intervals after dosing from each subject into standard tubes for bioanalytical and pharmacokinetic analysis. The blood was allowed to clot, and the serum separated, using common clinical laboratory techniques. Serum samples were stored at −20 deg C. until used for analysis.
MCD-386 HCl, which exists in serum principally as the protonated form of MCD-386, was assayed in clinical serum samples as follows. […] The MS/MS transitions monitored were 181.1 m/z to 111.0 m/z for MCD-386 HCl and 186.1 m/z to 111.1 m/z for the internal standard, D5-MCD-386 HCl. […] The lower limit of quantitation (LLOQ) was 0.100 ng MCD-386 HCl per mL of serum. MCD-386 HCl concentrations are expressed as free base. […]
The bioanalytical results were analyzed using Win Nonlin software and common pharmacokinetic methods known to those skilled in the art.

[2] = Plasma concentration in rats, iontophoresis patch versus oral gavage; type: in vivo, Long Evans Hooded rat; conditions: rat
From the text: Two patches were made up, consisting (in order from the outer layer to the skin contacting surface, respectively): adhesive tape (Transpore, 27 mm wide, 3M), circular stainless steel electrodes (22 mm dia) with a central hole for a stainless steel machine screw to which the electrode wire was attached, and 2 layers of 3MM CHR filter paper (Cat #3030-861, Whatman International, Ltd).
The mid-dorsal area of a Long Evans Hooded rat (approximate weight, 320 grams), surgically prepared with a jugular vein catheter (Charles River), was shaved and the skin was then cleaned using an Electrode Prep Pad (Professional Disposables, Inc, Cat #B59800). […]
Blood (400 μl) was withdrawn from the catheters in each rat every 30 minutes, transferred to 1.5 ml centrifuge tubes containing heparin (15 units/tube), and the plasma was separated by centrifugation from the cellular components. The plasma samples were maintained at 4 deg C. until analyzed. […]
The ultra-filtrates were subjected to reverse-phase liquid chromatography using a 150×2.1 mm Agilent C8 reverse-phase column on a Shimadzu Prominence LC, eluting the MCD-386 with an isocratic flow of 2% acetonitrile+0.1% formic acid. The concentration of MCD-386 in the column effluent was measured using an Applied Biosystems API-3200 triple quadrupole mass spectrometer equipped with a Turbo V source (electrospray sample injection) system. […]

rat M3 receptors = molecular target: T1, rat M3 receptors (Rattus norvegicus, UniProt P08483); test: PI turnover (inositol phosphate production) in M3-CHO cells; type: cell-based; conditions: mean Smax relative to carbachol (100.0); CHO cells expressing rat M3
T1 construct: host or cells: CHO (M3-CHO)
T1 sequence (P08483 whole entry): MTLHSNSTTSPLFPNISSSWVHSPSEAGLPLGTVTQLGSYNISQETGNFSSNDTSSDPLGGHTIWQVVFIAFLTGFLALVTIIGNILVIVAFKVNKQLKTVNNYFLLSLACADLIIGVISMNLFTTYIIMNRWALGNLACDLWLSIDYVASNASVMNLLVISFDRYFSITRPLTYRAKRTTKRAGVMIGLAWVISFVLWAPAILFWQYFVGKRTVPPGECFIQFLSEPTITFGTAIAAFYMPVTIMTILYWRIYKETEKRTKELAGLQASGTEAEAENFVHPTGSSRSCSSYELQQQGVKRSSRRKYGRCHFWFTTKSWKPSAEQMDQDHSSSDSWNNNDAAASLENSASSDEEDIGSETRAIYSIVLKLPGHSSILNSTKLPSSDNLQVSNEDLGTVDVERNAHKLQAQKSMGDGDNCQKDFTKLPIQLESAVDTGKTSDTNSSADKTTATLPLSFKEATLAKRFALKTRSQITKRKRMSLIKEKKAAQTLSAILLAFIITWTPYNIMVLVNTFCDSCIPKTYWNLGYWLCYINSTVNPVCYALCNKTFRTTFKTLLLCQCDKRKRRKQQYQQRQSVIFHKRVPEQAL
Procedure: The medium was changed to 70 μL/well of inositol-free DMEM containing 2 mM glutamine, 10% FBS and 10 μCi/ml of [3H]-inositol (PE:cat # NET114A250UC), incubated overnight as above, then 100 μL of a solution of the test compound in HBSS containing 10 mM LiCl and 20 mM HEPES, pH 7.4 was added, incubation was continued for 60 min under the above conditions, and the test was stopped by removing the test compound and replacing with 100 μL of 50 mM formic acid in water at 4° C. […] The compounds in Table 1 are all dihydropyrimidine-oxadiazoles which vary only at the oxadiazole side chain.

CCc1noc(C2CN=CNC2)n1 (centres unmarked) [MCD-386, 3-ethyl-5-(1,4,5,6-tetrahydropyrimidin-5-yl)-1,2,4-oxadiazole]
Papp (PAMPA test, Example 34): 0.05 ×10⁻⁶ cm/s
main metabolite in serum samples [1]: identified in the serum samples of five out of six subjects
bioavailability by transdermal delivery versus oral administration [2]: up to three times higher
Plasma Concentration ([2]; iontophoresis patch, dose 3.2 mg/kg, 30 minutes): 848 nM
M3/CHO PI turnover Relative Mean Smax (rat M3 receptors): 46.4
